Measurements as given in patent US11479616B2, “Method for preparing okra polygalacturonic acid having uric acid-lowering effect” (Institute of Biological and Medical Engineering, Guangdong …, priority 2020, dated 2022).

Key:
[1] = test system: mice with high uric acid levels; test: Evaluation of uric acid-lowering effect in high uric acid mouse models (blood uric acid, blood creatinine, serum urea nitrogen); type: in vivo, C57BL/6 mice; settings: 100 mg/kg of body weight, mean ± SD, n = 6
Method: (§1) C57BL/6 mice (16.7-20.4 g, 6-7 weeks old) were provided by the Guangdong Medical Laboratory Animal Center, and quarantined for 4 days before the trial. During the trial, the mice were kept in a house with stable conditions with a 12 h:12 h light-dark cycle and given ad libitum access to food and water.
The mice were divided according to their weights into a negative control group (normal mice), a model control group (mice with high uric acid levels), a positive control group (mice with high uric acid levels, administrated with allopurinol tablets), a low-dosage group (mice with high uric acid levels, […] acid), and a high-dosage group (mice with high uric acid levels, […]), six mice in each group. The mice of each group were treated with a corresponding solution through intragastric administration with a dosage of 20 mL per kg of body weight, wherein the mice of the positive control group were treated with a 5 mg/mL allopurinol solution, the mice of the negative control group and the model control group were treated with purified water, one administration per day. […] The mice were treated for 30 successive days.
Method for preparing OP1 samples: 45 mg of the okra polygalacturonic acid was weighed out and mixed well with a certain volume of purified water. The mixture was further added with purified water to a final volume of 4.5 mL to give a 10 mg/mL high-dosage solution, which shall be shaken well before used. 0.9 mL of the high-dosage solution was added with purified water to a final volume of 3.6 mL and mixed well to give a 2.5 mg/mL low-dosage solution, which shall be shaken well before used. […]
(§2) 3 hours after the last administration, the mice were anaesthetized using isoflurane, and blood was collected from each mouse by removing eyeballs. […] Blood uric acid levels, blood creatinine levels, and serum urea nitrogen levels were measured by an automatic biochemical analyzer, and XOD activities were determined using an ELISA kit.

[2] = test system: XOD; test: Serum XOD activity of high uric acid mouse models, determined using an ELISA kit; type: in vivo, C57BL/6 mice; settings: high uric acid mice, 100 mg/kg of body weight, intragastric, 30 days, mean ± SD, n = 6
Method: as §1
The mice were divided according to their weights into a negative control group (normal mice), a model control group (mice with high uric acid levels), a positive control group (mice with high uric acid levels, administrated with allopurinol tablets), a low-dosage group (mice with high uric acid levels, administrated with 50 mg/kg of the okra polygalacturonic acid), and a high-dosage group (mice with high uric acid levels, administrated with 200 mg/kg of the okra polygalacturonic acid), six mice in each group. […]
as §2

**Q.** For Oc1ncnc2[nH]ncc12 [Positive control, allopurinol], which blood creatinine ([1]; intragastric, 30 days) is on record?
**A.** Its blood creatinine is 30.2 ± 5.7 µmol/L.

**Q.** And the serum urea nitrogen ([1]; intragastric, 30 days)?
**A.** The serum urea nitrogen was 23.3 ± 4.1 mmol/L.

**Q.** And the Blood uric acid ([1]; one intragastric administration per day for 30 days, serum 3 hours after last administration)?
**A.** The Blood uric acid was 134.8 ± 19.9 µmol/L.

**Q.** And the XOD activity [2]?
**A.** Its XOD activity is 19.8 ± 2.2 U/L.
